Source: patent US9120946B2, “Active energy ray curing type composition, container that accommodates composition, inkjet discharging device having container, and cured matter” (RICOH COMPANY, LTD., priority 2013, dated 2015)

How the values were obtained:
female mice = test: skin sensitization test based on the LLNA (Local Lymph Node Assay), SI value by BrdU intake; type: in vivo; conditions: test substance 50.0 W/v % in acetone/olive oil 4:1, 25 μL to both auricles once a day for 3 days, SI less than 3 = negative
Description: The individuals remaining after the categorization were excluded from the test.
The test substance was weighed in a measuring flask, and the volume of the test substance was adjusted to 1 mL with the medium. The thus-prepared test substance preparation was placed in a light-shielded airtight container (made of glass).
This treatment was performed once a day for three consecutive days.
The surrounding tissue of each auricular lymph node was removed, and the auricular lymph nodes from both the auricles were collectively weighed.
After returning the auricular lymph nodes to room temperature, the auricular lymph nodes were mashed with the gradual addition of physiological saline, and suspended therein. The thus-obtained suspension was filtrated and thereafter dispensed into the wells of a 96-well microplate, with 3 wells being used per individual. The thus-dispensed suspensions were measured for intake of BrdU by the ELISA method. […] A multiplate reader (FLUOSTAR OPTIMA, product of BMG LABTECH Inc.) was used to measure the absorbance of each well (OD: 370 nm to 492 nm, the intake of BrdU), and the average of the absorbance of the 3 wells for each individual was used as the measurement of BrdU for the individual.

[1] = evaluation in Material Safety Data Sheet; cited from earlier work

| Molecule | SI values in LLNA test (female mice) | skin sensitization in MSDS [1] |
| --- | --- | --- |
| polypropylene glycol diacrylate [a5] | 1.5 | – |
| C=C(C)C(=O)OCCOCCOC(=O)C(=C)C [a1, diethyleneglycol dimethacrylate] | 1.1 | – |
| caprolactone-modified dipentaerythritol hexaacrylate [a2] | – | Negative in MSDS |
